Measurements published in ChEMBL document CHEMBL4842314, “Synthesis and SAR evaluation of coumarin derivatives as potent cannabinoid receptor agonists” (Eur J Med Chem, 2021).

Tests used:
Type in all cases: cell membranes
Cannabinoid receptor 2 [1] = biological target: T1, Cannabinoid receptor 2 (Homo sapiens, UniProt P34972); assay: Displacement of [3H]-CP55940 from human recombinant CB2 receptor expressed in CHO-K1 cell membrane at 1 uM measured after 3 hrs by scintillation spectrometry
Cannabinoid receptor 1 [2] = biological target: T2, Cannabinoid receptor 1 (Homo sapiens, UniProt P21554); assay: Displacement of [3H]-CP55940 from human recombinant CB1 receptor expressed in CHO-K1 cell membrane measured after 3 hrs by scintillation spectrometry
T2 sequence (P21554 whole entry): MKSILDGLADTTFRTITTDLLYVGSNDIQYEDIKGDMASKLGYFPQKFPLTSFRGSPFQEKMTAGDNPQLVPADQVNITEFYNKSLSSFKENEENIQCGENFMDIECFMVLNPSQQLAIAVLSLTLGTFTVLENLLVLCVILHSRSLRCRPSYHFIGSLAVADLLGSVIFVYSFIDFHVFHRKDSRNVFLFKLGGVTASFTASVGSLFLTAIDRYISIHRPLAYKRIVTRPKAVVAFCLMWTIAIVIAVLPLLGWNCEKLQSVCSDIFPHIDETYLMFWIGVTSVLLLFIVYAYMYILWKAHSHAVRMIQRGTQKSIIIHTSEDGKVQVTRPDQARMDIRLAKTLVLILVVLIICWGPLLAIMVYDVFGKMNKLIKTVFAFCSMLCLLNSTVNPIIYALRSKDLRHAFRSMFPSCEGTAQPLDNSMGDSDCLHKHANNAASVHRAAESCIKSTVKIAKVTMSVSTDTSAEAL

Cannabinoid receptor 2 [3] = biological target: T1, Cannabinoid receptor 2; assay: Displacement of [3H]-CP55940 from human recombinant CB2 receptor expressed in CHO-K1 cell membrane measured after 3 hrs by scintillation spectrometry
Cannabinoid receptor 1 [4] = biological target: T2, Cannabinoid receptor 1; assay: Displacement of [3H]-CP55940 from human recombinant CB1 receptor expressed in CHO-K1 cell membrane at 1 uM measured after 3 hrs by scintillation spectrometry

T1 sequence (P34972 whole entry): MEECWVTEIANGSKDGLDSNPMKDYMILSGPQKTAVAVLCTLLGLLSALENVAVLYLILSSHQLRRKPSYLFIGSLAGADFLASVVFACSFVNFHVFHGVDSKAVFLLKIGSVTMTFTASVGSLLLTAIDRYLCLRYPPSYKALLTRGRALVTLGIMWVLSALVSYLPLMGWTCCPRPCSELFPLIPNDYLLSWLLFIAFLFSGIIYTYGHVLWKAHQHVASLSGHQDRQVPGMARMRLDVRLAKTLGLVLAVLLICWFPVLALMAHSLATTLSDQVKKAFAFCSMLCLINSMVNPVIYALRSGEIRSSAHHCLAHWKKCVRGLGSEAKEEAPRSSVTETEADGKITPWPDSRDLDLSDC

## CCCCC1(c2cc(O)c3cc(-c4ccccc4O)c(=O)oc3c2)CCCC1
Cannabinoid receptor 2 [1]
  inhibition: -2%
Cannabinoid receptor 1 [2]; read-out: pKi (converted)
  Ki: > 1000 nM
Cannabinoid receptor 2 [3]; read-out: pKi (converted)
  Ki: > 1000 nM

## CCCCC1(c2cc(OC)c3cc(Cc4ccccn4)c(=O)oc3c2)CCCCC1
Cannabinoid receptor 1 [4]; filed as agonist
  inhibition: 47%
Cannabinoid receptor 2 [1]
  inhibition: 12%
Cannabinoid receptor 1 [2]; read-out: pKi (converted)
  Ki: > 1000 nM
Cannabinoid receptor 2 [3]; read-out: pKi (converted)
  Ki: > 1000 nM

## CCCCCCC(C)(C)c1cc(O)c2cc(Cc3ccccc3C(F)(F)F)c(=O)oc2c1
Cannabinoid receptor 1 [4]; filed as agonist
  inhibition: 49%
Cannabinoid receptor 2 [1]; filed as agonist
  inhibition: 42%
Cannabinoid receptor 1 [2]; read-out: pKi (converted)
  Ki: 1000 nM
Cannabinoid receptor 2 [3]; read-out: pKi (converted)
  Ki: > 1000 nM

## CCCCC1(c2cc(OC)c3cc(CCC)c(=O)oc3c2)CCCCC1
Cannabinoid receptor 1 [4]
  inhibition: 18%
Cannabinoid receptor 2 [1]
  inhibition: -4%
Cannabinoid receptor 1 [2]; read-out: pKi (converted)
  Ki: > 1000 nM
Cannabinoid receptor 2 [3]; read-out: pKi (converted)
  Ki: > 1000 nM

## CCCCC1(c2cc(OC)c3cc(Cc4ccccn4)c(=O)oc3c2)CCCC1
Cannabinoid receptor 1 [4]
  inhibition: 29%
Cannabinoid receptor 2 [1]
  inhibition: 20%
Cannabinoid receptor 1 [2]; read-out: pKi (converted)
  Ki: > 1000 nM
Cannabinoid receptor 2 [3]; read-out: pKi (converted)
  Ki: > 1000 nM

## CCCCC(C)(C)c1cc(OC)c2cc(Cc3ccccc3OC)c(=O)oc2c1
Cannabinoid receptor 1 [4]; filed as agonist
  inhibition: > 50%
Cannabinoid receptor 2 [1]; filed as agonist
  inhibition: > 50%
Cannabinoid receptor 1 [2]; read-out: Ki
  Ki: 196 nM
Cannabinoid receptor 2 [3]; read-out: Ki
  Ki: 231 nM

## CCCCC1(c2cc(OC)c3cc(C)c(=O)oc3c2)CCCCC1
Cannabinoid receptor 1 [4]
  inhibition: 9%
Cannabinoid receptor 1 [2]; read-out: pKi (converted)
  Ki: > 1000 nM
Cannabinoid receptor 2 [3]; read-out: pKi (converted)
  Ki: > 1000 nM

## CCCCC(C)(C)c1cc(O)c2cc(Cc3ccccc3C)c(=O)oc2c1
Cannabinoid receptor 1 [4]
  inhibition: 30%
Cannabinoid receptor 2 [1]; filed as agonist
  inhibition: 41%
Cannabinoid receptor 1 [2]; read-out: pKi (converted)
  Ki: > 1000 nM
Cannabinoid receptor 2 [3]; read-out: pKi (converted)
  Ki: > 1000 nM

## CCCCC1(c2cc(OC)c3cc(-c4ccccc4OC)c(=O)oc3c2)CCCC1
Cannabinoid receptor 1 [4]
  inhibition: -10%
Cannabinoid receptor 1 [2]; read-out: pKi (converted)
  Ki: > 1000 nM
Cannabinoid receptor 2 [3]; read-out: pKi (converted)
  Ki: > 1000 nM

## CCCCC1(c2cc(OC)c3cc(-c4ccc(C(F)(F)F)cc4)c(=O)oc3c2)CCCC1
Cannabinoid receptor 1 [4]
  inhibition: 3%
Cannabinoid receptor 2 [1]
  inhibition: -4%
Cannabinoid receptor 1 [2]; read-out: pKi (converted)
  Ki: > 1000 nM
Cannabinoid receptor 2 [3]; read-out: pKi (converted)
  Ki: > 1000 nM

## CCCCc1cc2c(OC)cc(C3(CCCC)CCCCC3)cc2oc1=O
Cannabinoid receptor 2 [1]
  inhibition: 2%
Cannabinoid receptor 1 [2]; read-out: pKi (converted)
  Ki: > 1000 nM
Cannabinoid receptor 2 [3]; read-out: pKi (converted)
  Ki: > 1000 nM

## CCCCCc1cc(O)c2cc(Cc3ccccn3)c(=O)oc2c1
Cannabinoid receptor 1 [2]; read-out: pKi (converted)
  Ki: > 1000 nM
Cannabinoid receptor 2 [3]; read-out: pKi (converted)
  Ki: > 1000 nM

## CCCCCCC(C)(C)c1cc(OC)c2cc(Cc3ccccc3OC)c(=O)oc2c1
Cannabinoid receptor 1 [4]; filed as agonist
  inhibition: > 50%
Cannabinoid receptor 2 [1]; filed as agonist
  inhibition: > 50%

## CCCCc1cc2c(OC)cc(C3(CCCC)CCCC3)cc2oc1=O
Cannabinoid receptor 1 [4]
  inhibition: 15%
Cannabinoid receptor 2 [1]
  inhibition: -1%
Cannabinoid receptor 1 [2]; read-out: pKi (converted)
  Ki: > 1000 nM
Cannabinoid receptor 2 [3]; read-out: pKi (converted)
  Ki: > 1000 nM

## CCCCC1(c2cc(OC)c3cc(CC)c(=O)oc3c2)CCCC1
Cannabinoid receptor 1 [4]
  inhibition: 33%
Cannabinoid receptor 2 [1]
  inhibition: 0%
Cannabinoid receptor 1 [2]; read-out: pKi (converted)
  Ki: > 1000 nM
Cannabinoid receptor 2 [3]; read-out: pKi (converted)
  Ki: > 1000 nM

## CCCCC1(c2cc(OC)c3cc(-c4ccccc4)c(=O)oc3c2)CCCC1
Cannabinoid receptor 1 [4]
  inhibition: 34%
Cannabinoid receptor 2 [1]
  inhibition: -8%
Cannabinoid receptor 1 [2]; read-out: pKi (converted)
  Ki: > 1000 nM
Cannabinoid receptor 2 [3]; read-out: pKi (converted)
  Ki: > 1000 nM

## CCCCC1(c2cc(O)c3cc(C)c(=O)oc3c2)CCCC1
Cannabinoid receptor 1 [4]
  inhibition: -10%
Cannabinoid receptor 2 [1]; filed as agonist
  inhibition: 49%
Cannabinoid receptor 1 [2]; read-out: pKi (converted)
  Ki: > 1000 nM
Cannabinoid receptor 2 [3]; read-out: pKi (converted)
  Ki: 1000 nM

## CCCCC1(c2cc(O)c3cc(-c4ccc(C(F)(F)F)cc4)c(=O)oc3c2)CCCC1
Cannabinoid receptor 2 [1]
  inhibition: -10%
Cannabinoid receptor 1 [2]; read-out: pKi (converted)
  Ki: > 1000 nM
Cannabinoid receptor 2 [3]; read-out: pKi (converted)
  Ki: > 1000 nM

## CCCCC1(c2cc(OC)c3cc(CC)c(=O)oc3c2)CCCCC1
Cannabinoid receptor 1 [4]
  inhibition: 6%
Cannabinoid receptor 2 [1]
  inhibition: -1%
Cannabinoid receptor 1 [2]; read-out: pKi (converted)
  Ki: > 1000 nM
Cannabinoid receptor 2 [3]; read-out: pKi (converted)
  Ki: > 1000 nM

## CCCCC1(c2cc(OC)c3cc(C)c(=O)oc3c2)CCCC1
Cannabinoid receptor 1 [4]
  inhibition: 16%
Cannabinoid receptor 2 [1]
  inhibition: 1%
Cannabinoid receptor 1 [2]; read-out: pKi (converted)
  Ki: > 1000 nM
Cannabinoid receptor 2 [3]; read-out: pKi (converted)
  Ki: > 1000 nM

## CCCCC1(c2cc(O)c3cc(-c4ccccc4)c(=O)oc3c2)CCCC1
Cannabinoid receptor 1 [2]; read-out: pKi (converted)
  Ki: > 1000 nM
Cannabinoid receptor 2 [3]; read-out: pKi (converted)
  Ki: > 1000 nM

## CCCCC1(c2cc(O)c3cc(Cc4ccncc4)c(=O)oc3c2)CCCC1
Cannabinoid receptor 2 [1]
  inhibition: 21%
Cannabinoid receptor 1 [2]; read-out: pKi (converted)
  Ki: > 1000 nM
Cannabinoid receptor 2 [3]; read-out: pKi (converted)
  Ki: > 1000 nM

## CCCCC1(c2cc(OC)c3cc(-c4ccccc4C)c(=O)oc3c2)CCCC1
Cannabinoid receptor 1 [2]; read-out: pKi (converted)
  Ki: > 1000 nM
Cannabinoid receptor 2 [3]; read-out: pKi (converted)
  Ki: > 1000 nM

## CCCCCc1cc(O)c2cc(Cc3ccncc3)c(=O)oc2c1
Cannabinoid receptor 2 [1]
  inhibition: -5%
Cannabinoid receptor 1 [2]; read-out: pKi (converted)
  Ki: > 1000 nM
Cannabinoid receptor 2 [3]; read-out: pKi (converted)
  Ki: > 1000 nM

## CCCCCCC(C)(C)c1cc(O)c2cc(Cc3ccccc3O)c(=O)oc2c1
Cannabinoid receptor 1 [4]; filed as agonist
  inhibition: > 50%
Cannabinoid receptor 2 [1]; filed as agonist
  inhibition: > 50%

## CCCCCc1cc(O)c2cc(Cc3cccnc3)c(=O)oc2c1
Cannabinoid receptor 1 [2]; read-out: pKi (converted)
  Ki: > 1000 nM
Cannabinoid receptor 2 [3]; read-out: pKi (converted)
  Ki: > 1000 nM

## CCCCCCC(C)(C)c1cc(O)c2cc(Cc3ccccc3)c(=O)oc2c1
Cannabinoid receptor 1 [4]; filed as agonist
  inhibition: > 50%
Cannabinoid receptor 2 [1]; filed as agonist
  inhibition: > 50%

## CCCCCCC(C)(C)c1cc(OC)c2cc(Cc3ccccc3)c(=O)oc2c1
Cannabinoid receptor 1 [4]; filed as agonist
  inhibition: > 50%
Cannabinoid receptor 2 [1]; filed as agonist
  inhibition: > 50%
